Assay results as given in ChEMBL document CHEMBL1201862, “PubChem BioAssay data set” (2004).
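Cultured in 96-well plates, cells were exposed to test compound for 48 hours across five concentrations. Abbreviation: GI50, concentration required for 50% inhibition of growth.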 Activity calls are given as the source filed them. Cut-off read from the data, not from the text of the source: active = GI50 up to about 1.1 µM and inactive = higher.

Tests used:
Assay in all cases: NCI anticancer screen, dose series, 48 h
[1] = test system: HT-29
[2] = test system: HCT-116
[3] = test system: SW-620
[4] = test system: EKVX
[5] = test system: UACC-257
[6] = test system: Malme-3M
[7] = test system: HCT-15
[8] = test system: OVCAR-4
[9] = test system: IGROV-1
[10] = test system: SK-MEL-28
[11] = test system: SF-295
[12] = test system: CAKI-1
[13] = test system: COLO 205
[14] = test system: NCI-H522
[15] = test system: SK-MEL-5
[16] = test system: A498

Measured: GI50

CC1CCC2CC(=O)OC([C@@H]3C(=O)O[C@@H](C4=CCCC4)C4C(C)CCC43)C12 (stereo not given in full)
inactive: [1] 61 µM | [2] 43.9 µM | [3] 70 µM | [4] > 100 µM | [5] > 100 µM | [6] > 100 µM | [8] > 10 µM | [9] 80.2 µM | [10] > 100 µM | [11] 79.1 µM | [12] 72.6 µM | [13] 32.4 µM | [14] 51.3 µM | [15] 97.7 µM
48.2 µM: [7]

O=c1cc2ccccc2nn1Cc1cccc(Cl)c1
inactive: [1] > 100 µM | [2] 78.9 µM | [3] 92.5 µM | [4] > 100 µM | [5] > 100 µM | [6] > 100 µM | [8] > 100 µM | [9] > 100 µM | [10] 98.9 µM | [16] > 100 µM | [11] > 100 µM | [12] > 100 µM | [13] > 100 µM | [15] 37.8 µM
99.5 µM: [7]

COc1ccc(-c2cc(=O)c3ccc(O)cc3o2)c(OC)c1OC
inactive: [1] 60.4 µM | [2] 51.9 µM | [3] 48 µM | [4] 87.3 µM | [5] 94 µM | [6] > 100 µM | [8] 88.7 µM | [9] > 100 µM | [10] 64.3 µM | [11] 46.5 µM | [12] 89.3 µM | [13] 95.9 µM | [14] 25.4 µM

CC(C)(C)OC1=C(OC(C)(C)C)C(O)(c2ccccc2)C1=O (stereo not given)
> 100 µM: [7]
inactive: [1] > 100 µM | [3] > 100 µM | [4] > 100 µM | [6] > 100 µM | [8] > 100 µM | [9] > 100 µM | [10] > 100 µM | [16] > 100 µM | [11] > 100 µM | [13] > 100 µM | [15] > 100 µM

COc1ccc2c3c1C(=O)CCCC3CO2 (stereo not given)
inactive: [1] > 100 µM | [3] > 100 µM | [5] > 100 µM | [6] > 100 µM | [8] > 100 µM | [9] > 100 µM | [10] > 100 µM | [16] > 100 µM | [11] > 100 µM | [13] > 100 µM | [14] > 100 µM | [15] > 100 µM
> 100 µM: [7]

O=C1CCC2(c3ccc(Cl)cc3)Nc3ncccc3N12 (stereo not given)
> 100 µM: [7]
inactive: [1] > 100 µM | [3] > 100 µM | [4] > 100 µM | [5] > 100 µM | [6] > 100 µM | [8] > 100 µM | [9] > 100 µM | [10] > 100 µM | [16] > 100 µM | [11] > 100 µM | [12] > 100 µM | [13] > 100 µM | [14] > 100 µM | [15] > 100 µM

COc1nc(NC2OC(COC(C)=O)C(OC(C)=O)C(OC(C)=O)C2OC(C)=O)c(/N=C(\C)C(C)=O)c(=O)n1C (stereo not given)
inactive: [1] > 100 µM | [2] > 100 µM | [3] > 100 µM | [4] > 100 µM | [5] > 100 µM | [6] > 100 µM | [8] > 100 µM | [9] > 100 µM | [16] > 100 µM | [11] > 100 µM | [12] > 100 µM | [13] > 100 µM | [15] > 100 µM
> 100 µM: [7]

CCCCCCCCCCCC(=O)C1=C(O)CC(O)CC1=O (stereo not given)
inactive: [1] > 100 µM | [2] > 100 µM | [3] > 100 µM | [4] > 100 µM | [5] > 100 µM | [8] > 100 µM | [9] > 100 µM | [10] > 100 µM | [11] 84.1 µM | [12] > 100 µM | [13] > 100 µM | [14] > 100 µM | [15] > 100 µM

Nc1ncnc2sc(Nc3ccccc3)nc12
inactive: [1] 7.28 µM | [3] > 100 µM | [5] > 100 µM | [6] > 100 µM | [8] 93.3 µM | [9] 32.2 µM | [10] > 100 µM | [11] > 100 µM | [12] 55.5 µM | [13] > 100 µM | [14] 28 µM
> 100 µM: [7]

CC(=O)c1c2c(cc3c1CC1(C3)Cc3cc4c(c(C(C)=O)c3C1)CCC4)CCC2
inactive: [1] > 100 µM | [2] > 100 µM | [3] > 100 µM | [5] > 100 µM | [6] 40.3 µM | [8] > 100 µM | [9] > 100 µM | [10] > 100 µM | [11] > 100 µM | [12] > 100 µM | [13] > 100 µM | [14] > 100 µM | [15] > 100 µM
